Consider 5 compounds from patent publication US12076401B2, “Benzamide and active compound compositions and methods of use” (TRANSLATIONAL DRUG DEVELOPMENT, LLC, priority 2015, dated 2024).

Where “and” joins values, the source holds several entries; their conditions need not be identical. Equal values may be shown once. Read-outs that look alike come from different tables or passages of the source.

For data set [1] the following is noted: cited from earlier work.
The next data set deals with CT-26. In words: CT-26 murine colon tumor volume growth. The format is in vivo. The conditions noted are these: 150.00 mg/kg PO QD to end + Isotype Control 0.05 mg/kg IP QDx1, in mm³. Here is the method: • Group 1 Isotype Control+Compound ID #24 Vehicle Control • Group 2 Isotype Control+Compound ID #24 • Group 3 Anti-m4-1BB 0.05 mg/kg • Group 4 Anti-m4-1BB 0.10 mg/kg • Group 5 Anti-m4-1BB 0.05 mg/kg+Compound ID #24

The next data set deals with MC-38. In words: MC-38 murine colon tumor volume growth. Type of data set: in vivo. The conditions noted are these: 150.00 mg/kg PO QD to end, in mm³. Here is the method: • Group 1 Isotype Control 5.00 mg/kg+Compound ID #24 Vehicle • Group 3 Compound ID #24 150.00 mg/kg • Group 4 anti-mGITR 5.00 mg/kg • Group 6 anti-mGITR 5.00 mg/kg+Compound ID #24 150.00 mg/kg
A further data set concerns U266. The experiment in a line: CellTiter-Glo cell viability, U266 (Myeloma). Type of data set: cell-based. Here is the method:
Compound ID #24 (a compound of formula (I)) and Compound ID #26 (a compound of formula (II)) were tested for the inhibition of cancer cell proliferation. Cell viability in the presence of varying concentrations of Compound ID #24 and Compound ID #26 at different time points was used to assess cytotoxicity and the effect of the compounds on cell proliferation. The data clearly show the surprising and unexpected increased anti-cancer activity associated with Compound ID #24 compared to Compound ID #26.
Cell Viability Assay—Cell viability was measured by the CellTiter-Glo® cell viability assay Promega (Madison, Wis.). The CellTiter-Glo® Luminescent Cell Viability Assay is a homogeneous method to determine the number of viable cells in culture based on quantitation of the ATP present, which signals the presence of metabolically active cells. Following treatment, CellTiter-Glo® is added to treatment wells and incubated at 37° C. luminescence values were measured at using a Molecular Devices Spectramax microplate reader.
Single Agent Studies—Cells were grown to 70% confluency, trypsinized, counted, and seeded in 96 well flat-bottom plates at a final concentration of 2.5×10^3-5×10^3 cells/well (Day 0). Cells were allowed to incubate in growth media for 24 hours. […] Viable cell numbers are quantified by the CellTiter-Glo® cell viability assay as described above. […]
On the technique in general: Cellular ATP, detected with luciferase, serves as a proxy for viable cell number.

Data set [2] deals with MM1.S human myeloma cells. The experiment in a line: Human MM1.S myeloma xenograft, single agent screening. The format is in vivo. The conditions noted are these: female athymic nude mice; 100 mg/kg daily for 19 days, oral gavage. From the text: Body weights and tumor measurements were collected twice weekly.
For orientation: Xenograft models place foreign cells or tissue in a host animal.

Data set [3] can be described thus: Pharmacokinetic studies, plasma of healthy mice. Type of data set: in vivo. The conditions noted are these: mouse; for Half-life: 1.0 mg/kg IV; for AUC0-∞: 5.0 mg/kg PO; for AUC: plasma, 5 mg/kg oral (PO). The method, then:
Plasma samples were collected from healthy mice and analyzed for levels of compound ID #24, ID #25, and ID #26 and reported in Table 6. In brief, compounds were individually and accurately weighed out to produce a stock solution in Dimethyl-sulfoxide (DMSO) at a concentration of 2 mg/mL and stored at −20° C. From the stock solution, a working stock was prepared by diluting it in Methanol-Water 50:50 (v/v) at 20 μg/mL for calibration curve preparation and stored at 4° C. Standards used for quantitation and quality control samples (QC's) were prepared on the same day of sample processing using blank plasma obtained from non-treated mice. For each analyte, standards were prepared through serial dilution of the working stock at concentrations of 0.1, 0.5, 1.0, 10, 50, 100, 500 and 1000 ng/mL; QC's were prepared at intermediate concentrations of 0.75, 7.5, 75 and 750 ng/mL. Plasma samples were stored at −80° C. until ready for analysis and then placed on ice for thawing. An aliquot of 20 μL for samples, standards and QC's, were transferred into a 96-well extraction plate according to a pre-defined layout. Appropriate volume of Methanol-Formic Acid 99.9-0.1 containing internal standard (Verapamil at 25 ng/mL) was added to each well and samples were extracted under vacuum. Eluent was then transferred into a LCMS plate for analysis using a suitable column for separation and MRM detection. Concentration of analytes was calculated based on the calibration curve and analyzed for pharmacokinetic parameters by using Non-compartmental analysis (NCA) using WinNonlin Phoenix software. Parameters such as Cmax, Tmax, half-life, AUC(0-last), AUC(0-∞), volume of distribution (Vss) and clearance (Cl/F) were reported.
The analogs were tested for pharmacokinetic analysis in the mouse with doses of 1 mg/kg for intravenous (IV) route and 5 mg/kg for oral (PO) route. […] Overall exposure following IV dose also favored compound ID #24 with AUC0-∞ 1488.1 hr*ng/mL whereas compound ID #25 and ID #26 were 329.1 and 1193.7 hr*ng/mL, respectively.

Data set [4] deals with intratumoral CD8 T-cells and natural killer cells. In words: Intratumoral immune cells in tumor bearing mice. Type of data set: in vivo.
Another data set relates to cancer cell models. The conditions noted are these: cited from earlier work.

`Nc1ncn([C@@H]2O[C@H](CO)[C@@H](O)[C@H]2O)c(=O)n1` [Azacitidine, 4-amino-1-β-D-ribofuranozyl-s-triazin-2(1H)-one]: the Solubility entry in data set [1] (acetone, ethanol and methyl ketone) was “insoluble”; in data set [1] (dimethylsulfoxide (DMSO)), “soluble”; in data set [1] (ethanol/water (50/50), propylene glycol and polyethylene glycol), “slightly soluble”; in data set [1] (water, water-saturated octanol, 5% dextrose in water, N-methyl-2-pyrrolidone, normal saline and 5% Tween 80 in water) it was “sparingly soluble”.
As usually defined, the AUC is concentration integrated over time. Higher therefore signals more exposure. Take `O=C(NO)c1ccc(Nc2nc3ccccc3n2CC2CCCCC2)cc1` [Compound ID #24, 4-(1-(cyclohexylmethyl)-1H-benzo[d]imidazol-2-ylamino)-N-hydroxybenzamide]: the “Tumor volume, Mean” value is on record as 122.0 in the data set with CT-26 (Day 1); 165.5 in the data set with CT-26 (Day 5); 215.2 in the data set on CT-26 (Day 8); 241.8 with CT-26 (Day 9); 307.4 in the data set on CT-26 (Day 12); 382.7 with CT-26 (Day 14). In addition, the “Tumor volume, Mean” value is 94.5 in the data set with MC-38 (Day 1); 141.8 in the data set on MC-38 (Day 6); 154.8 with MC-38 (Day 9); 187.8 with MC-38 (Day 12); 235.9 with MC-38 (Day 15); 285.2 in the data set with MC-38 (Day 19). Also, the “Tumor volume, Mean” value in the data set on MC-38 (Day 22) was 389.1; in the data set with MC-38 (Day 26), 566.5; in the data set on MC-38 (Day 29), 714.8. The “Tumor volume, Median” value in the data set with CT-26 (Day 1) is given as 113.8; in the data set with CT-26 (Day 5) it was 144.8; with CT-26 (Day 8), 208.7; with CT-26 (Day 9), 245.2; in the data set on CT-26 (Day 12), 285.7; in the data set on CT-26 (Day 14) it was 352.6. The “Tumor volume, Median” value in the data set on MC-38 (Day 1) came out at 92.2; with MC-38 (Day 6), 137.6; with MC-38 (Day 9) it was 148.0; with MC-38 (Day 12), 190.0; in the data set on MC-38 (Day 15) it was 251.8; in the data set with MC-38 (Day 19) it was 289.3. Besides, the “Tumor volume, Median” value came to 397.8 in the data set with MC-38 (Day 22), 540.0 in the data set on MC-38 (Day 26) and 646.1 in the data set with MC-38 (Day 29). Moreover, the “Tumor volume, individual animals” value in the data set with CT-26 (Day 1) was 106 and 85 and 156 and 149 and 114; in the data set with CT-26 (Day 5) it was 131 and 73 and 299 and 158; with CT-26 (Day 8) it was 176 and 65 and 378 and 242; with CT-26 (Day 9), 198 and 65 and 412 and 292; with CT-26 (Day 12), 212 and 68 and 590 and 359; in the data set with CT-26 (Day 14), 254 and 67 and 758 and 452. The “Tumor volume, individual animals” value was 68 and 81 and 103 and 128 and 92 in the data set on MC-38 (Day 1); 72 and 92 and 138 and 231 and 176 in the data set on MC-38 (Day 6); 83 and 121 and 148 and 240 and 182 with MC-38 (Day 9); 123 and 158 and 222 and 248 in the data set on MC-38 (Day 12); 135 and 213 and 290 and 305 in the data set with MC-38 (Day 15); 178 and 289 and 388 with MC-38 (Day 19). The “Tumor volume, individual animals” value with MC-38 (Day 22) was 244 and 398 and 526; with MC-38 (Day 26), 370 and 540 and 789; in the data set on MC-38 (Day 29) it was 495 and 646 and 1,003. The “Improvement ID#24 over ID#26 Fold Change” value in the data set with U266 was 3.50. For the same compound, in data set [2], the “anticancer activity (tumor volume)” value is “significantly superior anticancer activity when compared to either Compound ID #25 or Compound ID #26”. This compound also displayed a Half-life in data set [3] of 3.70 h. Moreover, in data set [3], the “AUC0-∞” value worked out at 3974.82 ng·h/mL. In data set [3], this compound gave an AUC of 3970 ng·h/mL. In addition, the “numbers of intratumoral CD8 T-cells and natural killer cells” value in data set [4] was “increased numbers of intratumoral CD8 T-cells and natural killer cells”.
As to `O=C(NO)c1ccc(Nc2nc3ccccc3n2C2CCCCC2)cc1` [Compound ID #25, 4-(1-cyclohexyl-1H-benzo[d]imidazol-2-ylamino)-N-hydroxybenzamide], in data set [3], the Half-life was 1.20 h, the “AUC0-∞” value was 1277.26 ng·h/mL and the AUC stood at 1280 ng·h/mL.
For the compound `O=C(NO)c1ccc(Nc2nc3ccccc3n2C2CCCCCC2)cc1` [Compound ID #26, 4-(1-cycloheptyl-1H-benzo[d]imidazol-2-ylamino)-N-hydroxybenzamide], the AUC in data set [3] was 1650 ng·h/mL.
For `Nc1ncn([C@H]2C[C@H](O)[C@@H](CO)O2)c(=O)n1` [Decitabine, 4-amino-1-(2-deoxy-β-D-erythro-pentofuranosyl)-1,3,5-triazin-2(1H)one], the Solubility result in data set [1] (dimethylsulfoxide (DMSO)) is on record as “soluble”; in data set [1] (ethanol/water (50/50), methanol/water (50/50) and methanol), “slightly soluble”; in data set [1] (water) it was “sparingly soluble”. Besides, the “cell cycle, clonogenic survival and growth in cells” value in the data set with cancer cell models (Palii et al. 2008) is “causes G2 arrest, reduces clonogenic survival, and inhibits growth in cells”. Besides, the “effect on growth and apoptosis of cancer cell models” value in the data set with cancer cell models (through re-expression of silenced genes) was “suppression of growth and apoptosis”.
